Laboratory results: ChEMBL document CHEMBL3822357, “New Atglistatin closely related analogues: Synthesis and structure-activity relationship towards adipose triglyceride lipase inhibition” (Eur J Med Chem, 2016)
Calls of active or inactive are those of the source. The calls are words filed in the database; no cut-off is given here.

Key:
[1] = biological target: T1, Patatin-like phospholipase domain-containing protein 2 (Mus musculus) (UniProt Q8BJ56); assay: Inhibition of ATGL in mouse 3T3L1 cells assessed as inhibition of isoproterenol-stimulated lipolysis by measuring reduction in glycerol release in media at 20 uM preincubated for 4 hrs followed by isoproterenol addition measured after 1 hr by colorimetric assay; format: cell-based; conditions: 3T3-L1
T1 sequence (whole entry): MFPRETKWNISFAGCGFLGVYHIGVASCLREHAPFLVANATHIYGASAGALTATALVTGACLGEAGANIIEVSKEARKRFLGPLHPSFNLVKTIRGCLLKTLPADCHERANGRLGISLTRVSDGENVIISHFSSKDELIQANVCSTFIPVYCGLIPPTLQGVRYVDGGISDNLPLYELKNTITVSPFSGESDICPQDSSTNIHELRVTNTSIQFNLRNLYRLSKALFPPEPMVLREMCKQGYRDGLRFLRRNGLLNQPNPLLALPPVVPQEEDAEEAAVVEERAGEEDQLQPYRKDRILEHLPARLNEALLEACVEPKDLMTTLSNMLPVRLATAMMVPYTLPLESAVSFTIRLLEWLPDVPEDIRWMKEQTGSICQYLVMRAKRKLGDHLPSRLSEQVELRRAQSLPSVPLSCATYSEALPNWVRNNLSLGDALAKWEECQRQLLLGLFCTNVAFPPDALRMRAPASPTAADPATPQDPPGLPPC

[2] = biological target: T1, Patatin-like phospholipase domain-containing protein 2 (Mus musculus); assay: Inhibition of ATGL in mouse 3T3L1 cells assessed as inhibition of isoproterenol-stimulated lipolysis by measuring reduction in non-esterified fatty acid release in media at 20 uM preincubated for 4 hrs followed by isoproterenol addition measured after 1 hr by colorimetric assay; format: cell-based; conditions: 3T3-L1
[3] = biological target: T2, Patatin-like phospholipase domain-containing protein 2 (Homo sapiens, UniProt Q96AD5); assay: Inhibition of ATGL (unknown origin) overexpressed in Escherichia coli XL-1 cells using [9,10-3H(N)]triolein as substrate incubated for 60 mins by liquid scintillation counting method
T2 sequence (Q96AD5 whole entry): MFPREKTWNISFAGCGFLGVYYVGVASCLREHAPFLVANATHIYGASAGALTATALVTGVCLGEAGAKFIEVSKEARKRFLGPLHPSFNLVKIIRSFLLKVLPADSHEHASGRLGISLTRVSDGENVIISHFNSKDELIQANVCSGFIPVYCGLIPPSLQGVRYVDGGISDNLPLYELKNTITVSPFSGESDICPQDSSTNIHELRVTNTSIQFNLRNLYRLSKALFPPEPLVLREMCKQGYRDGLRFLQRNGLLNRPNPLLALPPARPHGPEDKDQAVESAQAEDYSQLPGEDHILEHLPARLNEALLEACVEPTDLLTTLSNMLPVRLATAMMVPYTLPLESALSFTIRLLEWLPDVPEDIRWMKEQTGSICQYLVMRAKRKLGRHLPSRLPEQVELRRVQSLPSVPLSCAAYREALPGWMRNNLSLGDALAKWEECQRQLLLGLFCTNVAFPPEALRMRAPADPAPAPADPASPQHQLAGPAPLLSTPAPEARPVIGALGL

Row | SMILES | inhibition [1] | inhibition [2] | IC50 [3] [nM]
1 | CN(C)C(=O)Nc1ccc(-c2ccc(N)cc2)cc1 | inactive | – | –
2 | CN(C)C(=O)Nc1cccc(-c2cccc(NC(=O)N(C)C)c2)c1 | inactive | inactive | –
3 | CN(C)c1ccc(-c2ccc(N(C)C)cc2)cc1 | inactive | inactive | –
4 | CN(C)C(=O)Nc1cccc(-c2ccccc2)c1 | Active | Active | –
5 | CN(C)c1cccc(N(C)C)c1 | inactive | inactive | –
6 | CN(C)C(=O)Nc1ccc(-c2ccc(N(C)C)cc2)cc1 | inactive | inactive | –
7 | CN(C)C(=O)Nc1ccc(-c2ccccc2)cc1 | inactive | – | –
8 | CN(C)C(=O)Nc1ccc(N(C)C)cc1 | inactive | – | –
9 | CN(C)C(=O)Nc1cccc(N(C)C)c1 | inactive | inactive | –
10 | CN(C)c1cccc(-c2ccccc2)c1 | inactive | inactive | –
11 | CN(C)C(=O)Nc1ccc(-c2cccc(N(C)C)c2)cc1 | inactive | inactive | –
12 | CN(C)C(=O)Nc1cccc(-c2cccc(N(C)C)c2)c1 | inactive | inactive | –
13 | CN(C)C(=O)Nc1ccc(-c2ccc(NC(=O)N(C)C)cc2)cc1 | inactive | inactive | –
14 | CN(C)C(=O)Nc1cccc(-c2ccc(N(C)C)cc2)c1 | – | Active | 700
15 | CN(C)c1ccc(N(C)C)cc1 | inactive | inactive | –
16 | CN(C)c1cccc(-c2cccc(N(C)C)c2)c1 | inactive | inactive | –
17 | CN(C)c1ccc(-c2ccccc2)cc1 | inactive | inactive | –
18 | CN(C)C(=O)Nc1ccc(NC(=O)N(C)C)cc1 | inactive | inactive | –
